Converted amounts (≈) assume the structure as drawn.
Key:
[1] = tested on: MS CoNS; experiment: In vitro MIC, 2010 surveillance isolates; type: cell-based, Coagulase-Negative Staphylococcus
[2] = tested on: K. pneumoniae ESBL−; experiment: In vitro MIC, 2010 surveillance isolates; type: cell-based, Klebsiella pneumoniae; conditions: for % R (resistance): CLSI breakpoints
[3] = tested on: E. cloacae CeftazS; experiment: In vitro MIC, 2010 surveillance isolates; type: cell-based; conditions: for % R (resistance): CLSI breakpoints
[4] = tested on: E. coli ESBL−; experiment: In vitro MIC, 2010 surveillance isolates; type: cell-based, Escherichia coli; conditions: for % R (resistance): CLSI breakpoints
[5] = tested on: E. faecalis VNS; experiment: In vitro MIC, 2010 surveillance isolates; type: cell-based; conditions: for % R (resistance): CLSI breakpoints
[6] = tested on: K. oxytoca; experiment: In vitro MIC, 2010 surveillance isolates; type: cell-based; conditions: for % R (resistance): CLSI breakpoints
[7] = tested on: K. pneumoniae ESBL+; experiment: In vitro MIC, 2010 surveillance isolates; type: cell-based, Klebsiella pneumoniae; conditions: for % R (resistance): CLSI breakpoints
[8] = tested on: Acinetobacter spp; experiment: In vitro MIC, 2010 surveillance isolates; type: cell-based; conditions: for range of MICs (N <10, shown instead of MIC90): N=9; for % R (resistance): CLSI breakpoints
[9] = tested on: E. cloacae CeftazR; experiment: In vitro MIC, 2010 surveillance isolates; type: cell-based; conditions: for % R (resistance): CLSI breakpoints
[10] = tested on: Enterobacter spp; experiment: In vitro MIC, 2010 surveillance isolates; type: cell-based; conditions: for % R (resistance): CLSI breakpoints
[11] = tested on: E. faecium VS; experiment: In vitro MIC, 2010 surveillance isolates; type: cell-based; conditions: for % R (resistance): CLSI breakpoints
[12] = tested on: A. baumanii; experiment: In vitro MIC, 2010 surveillance isolates; type: cell-based
[13] = tested on: human plasma protein; conditions: literature; cited from earlier work
[14] = tested on: E. coli ESBL+; experiment: In vitro MIC, 2010 surveillance isolates; type: cell-based, Escherichia coli; conditions: for % R (resistance): CLSI breakpoints
[15] = tested on: E. faecium VNS; experiment: In vitro MIC, 2010 surveillance isolates; type: cell-based; conditions: for % R (resistance): CLSI breakpoints
[16] = tested on: MRSA; experiment: In vitro MIC, 2010 surveillance isolates; type: cell-based
[17] = tested on: E. faecalis VS; experiment: In vitro MIC, 2010 surveillance isolates; type: cell-based; conditions: for % R (resistance): CLSI breakpoints
[18] = tested on: MR CoNS; experiment: In vitro MIC, 2010 surveillance isolates; type: cell-based, Coagulase-Negative Staphylococcus
[19] = tested on: MSSA; experiment: In vitro MIC, 2010 surveillance isolates; type: cell-based

MIC90 ([1]; Asia/Pac, N=18): 2 µg/mL (≈ 4.5 µM) | MIC90 ([1]; Europe, N=185): 1 µg/mL (≈ 2.25 µM) | MIC90 ([1]; L. Amer, N=67): 2 µg/mL (≈ 4.5 µM) | MIC90 ([1]; N America, N=191): 1 µg/mL (≈ 2.25 µM) | MIC90 ([2]; Asia/Pac, N=189): > 8 µg/mL | MIC90 ([2]; Europe, N=361): > 8 µg/mL | MIC90 ([2]; L. Amer, N=160): > 8 µg/mL | MIC90 ([2]; N America, N=671): > 8 µg/mL | MIC90 ([3]; Asia/Pac, N=100): > 8 µg/mL | MIC90 ([3]; Europe, N=183): 4 µg/mL (≈ 9 µM) | MIC90 ([3]; L. Amer, N=57): > 8 µg/mL | MIC90 ([3]; N America, N=210): 4 µg/mL (≈ 9 µM) | MIC90 ([4]; Asia/Pac, N=282): > 8 µg/mL | MIC90 ([4]; Europe, N=1533): > 8 µg/mL | MIC90 ([4]; L. Amer, N=389): > 8 µg/mL | MIC90 ([4]; N America, N=1172): > 8 µg/mL | range of MICs (N <10, shown instead of MIC90) ([5]; Asia/Pac, N=1): 8 | range of MICs (N <10, shown instead of MIC90) ([5]; Europe, N=8): 0.5-8 | range of MICs (N <10, shown instead of MIC90) ([5]; L. Amer, N=7): ≤0.06-4 | MIC90 ([5]; N America, N=38): 8 µg/mL (≈ 18 µM) | MIC90 ([6]; Asia/Pac, N=17): 2 µg/mL (≈ 4.5 µM) | MIC90 ([6]; Europe, N=158): 2 µg/mL (≈ 4.5 µM) | MIC90 ([6]; L. Amer, N=25): > 8 µg/mL | MIC90 ([6]; N America, N=177): 4 µg/mL (≈ 9 µM) | MIC90 ([7]; Asia/Pac, N=124): > 8 µg/mL | MIC90 ([7]; Europe, N=151): > 8 µg/mL | MIC90 ([7]; L. Amer, N=209): > 8 µg/mL | MIC90 ([7]; N America, N=108): > 8 µg/mL | range of MICs (N <10, shown instead of MIC90) ([8]; Asia/Pac): ≤0.06-2 | MIC90 ([8]; Europe, N=43): > 8 µg/mL | range of MICs (N <10, shown instead of MIC90) ([8]; L. Amer): ≤0.06-2 | MIC90 ([8]; N America, N=42): > 8 µg/mL | MIC90 ([9]; Asia/Pac, N=63): 8 µg/mL (≈ 18 µM) | MIC90 ([9]; Europe, N=72): > 8 µg/mL | MIC90 ([9]; L. Amer, N=42): > 8 µg/mL | MIC90 ([9]; N America, N=77): > 8 µg/mL | MIC90 ([10]; Asia/Pac, N=52): > 8 µg/mL | MIC90 ([10]; Europe, N=82): 8 µg/mL (≈ 18 µM) | MIC90 ([10]; L. Amer, N=42): 4 µg/mL (≈ 9 µM) | MIC90 ([10]; N America, N=101): 4 µg/mL (≈ 9 µM) | MIC90 ([11]; Asia/Pac, N=106): > 8 µg/mL | MIC90 ([11]; Europe, N=303): > 8 µg/mL | MIC90 ([11]; L. Amer, N=51): > 8 µg/mL | MIC90 ([11]; N America, N=115): > 8 µg/mL | MIC90 ([12]; Asia/Pac, N=275): > 8 µg/mL | MIC90 ([12]; Europe, N=145): > 8 µg/mL | MIC90 ([12]; L. Amer, N=275): > 8 µg/mL | MIC90 ([12]; N America, N=154): > 8 µg/mL | MIC90 ([14]; Asia/Pac, N=219): > 8 µg/mL | MIC90 ([14]; Europe, N=274): > 8 µg/mL | MIC90 ([14]; L. Amer, N=168): > 8 µg/mL | MIC90 ([14]; N America, N=134): > 8 µg/mL | MIC90 ([15]; Asia/Pac, N=24): > 8 µg/mL | MIC90 ([15]; Europe, N=71): 8 µg/mL (≈ 18 µM) | MIC90 ([15]; L. Amer, N=41): 8 µg/mL (≈ 18 µM) | MIC90 ([15]; N America, N=478): > 8 µg/mL | MIC90 ([16]; Asia/Pac, N=428): 8 µg/mL (≈ 18 µM) | MIC90 ([16]; Europe, N=750): 4 µg/mL (≈ 9 µM) | MIC90 ([16]; L. Amer, N=506): 0.25 µg/mL (≈ 0.563 µM) | MIC90 ([16]; N America, N=2508): 0.5 µg/mL (≈ 1.13 µM) | MIC90 ([17]; Asia/Pac, N=214): > 8 µg/mL | MIC90 ([17]; Europe, N=669): > 8 µg/mL | MIC90 ([17]; L. Amer, N=290): 8 µg/mL (≈ 18 µM) | MIC90 ([17]; N America, N=863): 8 µg/mL (≈ 18 µM) | MIC90 ([18]; Asia/Pac, N=77): 8 µg/mL (≈ 18 µM) | MIC90 ([18]; Europe, N=510): 2 µg/mL (≈ 4.5 µM) | MIC90 ([18]; L. Amer, N=301): 1 µg/mL (≈ 2.25 µM) | MIC90 ([18]; N America, N=461): 2 µg/mL (≈ 4.5 µM) | MIC90 ([19]; Asia/Pac, N=641): 1 µg/mL (≈ 2.25 µM) | MIC90 ([19]; Europe, N=2109): 0.12 µg/mL (≈ 0.27 µM) | MIC90 ([19]; L. Amer, N=590): 0.5 µg/mL (≈ 1.13 µM) | MIC90 ([19]; N America, N=2373): 0.12 µg/mL (≈ 0.27 µM)
SMILES: C[C@H]1c2cccc(O)c2C(=O)C2=C(O)[C@]3(O)C(=O)C(C(N)=O)=C(O)[C@@H](N(C)C)[C@@H]3[C@@H](O)[C@@H]21 [Doxycycline]
% R (resistance) ([1]; Asia/Pac, Eucast breakpoints): 5.6% | % R (resistance) ([1]; Europe, Eucast breakpoints): 3.2% | % R (resistance) ([1]; L. Amer, CLSI breakpoints): 0% | % R (resistance) ([1]; N America, CLSI breakpoints): 0.5% | % R (resistance) ([2]; L. Amer): 17.5% | % R (resistance) ([2]; N America): 13.7% | % R (resistance) ([3]; L. Amer): 12.3% | % R (resistance) ([3]; N America): 6.2% | % R (resistance) ([4]; L. Amer): 31.4% | % R (resistance) ([4]; N America): 16% | % R (resistance) ([5]; L. Amer): 0% | % R (resistance) ([5]; N America): 5.3% | % R (resistance) ([6]; L. Amer): 12% | % R (resistance) ([6]; N America): 2.3% | % R (resistance) ([7]; L. Amer): 44% | % R (resistance) ([7]; N America): 43.5% | % R (resistance) ([8]; L. Amer): 0% | % R (resistance) ([8]; N America): 11.9% | % R (resistance) ([9]; L. Amer): 14.3% | % R (resistance) ([9]; N America): 28.6% | % R (resistance) ([10]; L. Amer): 0% | % R (resistance) ([10]; N America): 7.9% | % R (resistance) ([11]; L. Amer): 21.6% | % R (resistance) ([11]; N America): 31.3% | % R (resistance) ([12]; L. Amer, CLSI breakpoints): 15.3% | human plasma protein binding, Mean [13]: 82-93% | resistance rates for ESBL-producing clinical isolates ([14]; E. coli): 46% | % R (resistance) ([14]; L. Amer): 53% | % R (resistance) ([14]; N America): 42.5% | % R (resistance) ([15]; L. Amer): 7.3% | % R (resistance) ([15]; N America): 33.1% | % R (resistance) ([16]; Asia/Pac, Eucast breakpoints): 48.6% | % R (resistance) ([16]; Europe, Eucast breakpoints): 10.8% | % R (resistance) ([16]; L. Amer, CLSI breakpoints): 0% | % R (resistance) ([16]; N America, CLSI breakpoints): 0.1% | % R (resistance) ([17]; L. Amer): 7.6% | % R (resistance) ([17]; N America): 7.1% | % R (resistance) ([18]; Asia/Pac, Eucast breakpoints): 20.8% | % R (resistance) ([18]; Europe, Eucast breakpoints): 8.8% | % R (resistance) ([18]; L. Amer, CLSI breakpoints): 0.3% | % R (resistance) ([18]; N America, CLSI breakpoints): 1.3% | % R (resistance) ([19]; Asia/Pac, Eucast breakpoints): 1.7% | % R (resistance) ([19]; Europe, Eucast breakpoints): 1.4% | % R (resistance) ([19]; L. Amer, CLSI breakpoints): 0% | % R (resistance) ([19]; N America, CLSI breakpoints): ≤ 0.1%
